Assay results as given in PubChem BioAssay AID248 (DTP/NCI, 2004).
Values joined by “and” are separate entries in the source; they are usually repeats but may differ in a detail not shown here. Equal values may be shown once. Inconclusive results and toxic doses are left out. Rule as the data show it: active = T/C of 150% or more; inactive = T/C below 125%.

System: L1210 leukemia ip in BDF1 mice, survival T/C
Assay: NCI In Vivo Anticancer Drug Screen. Data for tumor model L1210 Leukemia (intraperitoneal) in B6D2F1 (BDF1) mice
Conditions: endpoint: mean survival time, higher = longer survival
Procedure, shortened: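 In this screen, tumor-bearing mice given compound are compared to those given vehicle, and their survival values are reported as a treated-to-control quotient.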

[1] = dose: 100.0 mg/kg/injection, schedule: Q01DX009 (ip), vehicle: Klucel (hydroxypropylcellulose) (HPC)
[2] = dose: 100.0 mg/kg/injection, schedule: Q04DX003 (ip), vehicle: Klucel (hydroxypropylcellulose) (HPC)
[3] = dose: 200.0 mg/kg/injection, schedule: Q01DX009 (ip), vehicle: Klucel (hydroxypropylcellulose) (HPC)
[4] = dose: 200.0 mg/kg/injection, schedule: Q04DX003 (ip), vehicle: Klucel (hydroxypropylcellulose) (HPC)
[5] = dose: 400.0 mg/kg/injection, schedule: Q01DX009 (ip), vehicle: Klucel (hydroxypropylcellulose) (HPC)
[6] = dose: 400.0 mg/kg/injection, schedule: Q04DX003 (ip), vehicle: Klucel (hydroxypropylcellulose) (HPC)
[7] = dose: 50.0 mg/kg/injection, schedule: Q04DX002 (ip), vehicle: Klucel (hydroxypropylcellulose) (HPC)
[8] = dose: 100.0 mg/kg/injection, schedule: Q04DX002 (ip), vehicle: Klucel (hydroxypropylcellulose) (HPC)
[9] = dose: 200.0 mg/kg/injection, schedule: Q04DX002 (ip), vehicle: Klucel (hydroxypropylcellulose) (HPC)
[10] = dose: 400.0 mg/kg/injection, schedule: Q04DX002 (ip), vehicle: Klucel (hydroxypropylcellulose) (HPC)
[11] = dose: 100.0 mg/kg/injection, schedule: Q04DX002 (ip), vehicle: saline with Tween-80
[12] = dose: 200.0 mg/kg/injection, schedule: Q04DX002 (ip), vehicle: saline with Tween-80
[13] = dose: 200.0 mg/kg/injection, schedule: Q01DX001 (ip), vehicle: saline
[14] = dose: 400.0 mg/kg/injection, schedule: Q01DX001 (ip), vehicle: saline

Measured: T/C

Cc1ccc(Cl)cc1NC(=O)COc1ccc(Cl)cc1
inactive: [1] 88 % of control | [2] 98 % of control | [3] 94 % of control | [4] 88 % of control | [5] 91 % of control | [6] 103 % of control

CC(=O)C(CCC#N)(CCC#N)C(C)=O
inactive: [7] 101 % of control | [8] 95 % of control and 105 % of control | [9] 100 % of control | [10] 97 % of control and 86 % of control

CCCCCCCCCCCCCCCCSc1ccc2ccccc2c1
inactive: [2] 100 % of control | [4] 96 % of control | [6] 87 % of control

CC(=O)Nc1ccc(C(=O)/C=C/C(=O)O)c(O)c1
inactive: dose: 100.0 mg/kg/injection, schedule: Q04DX003 (ip), vehicle: saline 98 % of control | dose: 200.0 mg/kg/injection, schedule: Q04DX003 (ip), vehicle: saline 100 % of control | dose: 400.0 mg/kg/injection, schedule: Q04DX003 (ip), vehicle: saline 100 % of control

CC1CC(C)NC(=S)N1 (stereo not drawn)
inactive: dose: 50.0 mg/kg/injection, schedule: Q04DX002 (ip), vehicle: saline with Tween-80 98 % of control | [11] 102 % of control | [12] 98 % of control

C/C=C/C(C1=C(O)c2ccccc2C(=O)C1=O)C1=C(O)c2ccccc2C(=O)C1=O
inactive: dose: 75.0 mg/kg/injection, schedule: Q01DX001 (ip), vehicle: carboxymethylcellulose (CMC) 100 % of control | dose: 150.0 mg/kg/injection, schedule: Q01DX001 (ip), vehicle: carboxymethylcellulose (CMC) 118 % of control | dose: 300.0 mg/kg/injection, schedule: Q01DX001 (ip), vehicle: carboxymethylcellulose (CMC) 108 % of control

NC(=O)c1ccccc1NC(=O)Nc1cccc(F)c1
inactive: dose: 25.0 mg/kg/injection, schedule: Q01DX009 (ip), vehicle: saline with Tween-80 89 % of control | dose: 50.0 mg/kg/injection, schedule: Q01DX009 (ip), vehicle: saline with Tween-80 95 % of control | dose: 100.0 mg/kg/injection, schedule: Q01DX009 (ip), vehicle: saline with Tween-80 104 % of control | dose: 200.0 mg/kg/injection, schedule: Q01DX009 (ip), vehicle: saline with Tween-80 90 % of control | dose: 400.0 mg/kg/injection, schedule: Q01DX009 (ip), vehicle: saline with Tween-80 96 % of control

COc1ccc(NC(=O)NCc2ccc(C)cc2)cc1
inactive: [8] 104 % of control | [9] 104 % of control | [10] 96 % of control

COc1ccccc1-n1c(C)nc2c1C(=O)c1ccccc1C2=O
inactive: dose: 100.0 mg/kg/injection, schedule: Q04DX003 (ip), vehicle: saline with Tween-80 96 % of control | dose: 200.0 mg/kg/injection, schedule: Q04DX003 (ip), vehicle: saline with Tween-80 93 % of control | dose: 400.0 mg/kg/injection, schedule: Q04DX003 (ip), vehicle: saline with Tween-80 96 % of control

CCN(CC)CCOC(=O)C(c1ccccc1)c1ccccc1
inactive: dose: 75.0 mg/kg/injection, schedule: Q01DX001 (ip), vehicle: saline 104 % of control | dose: 150.0 mg/kg/injection, schedule: Q01DX001 (ip), vehicle: saline 94 % of control

CCCCCCCCCCOc1ccccc1C(=O)NCCN1CCCC1
inactive: dose: 15.0 mg/kg/injection, schedule: Q01DX015 (ip), vehicle: saline 88 % of control | dose: 30.0 mg/kg/injection, schedule: Q01DX015 (ip), vehicle: saline 91 % of control | dose: 60.0 mg/kg/injection, schedule: Q01DX015 (ip), vehicle: saline 91 % of control | dose: 120.0 mg/kg/injection, schedule: Q01DX015 (ip), vehicle: saline 88 % of control

O=C(O)c1c[nH]c2c(Cl)cc(Cl)cc2c1=O
inactive: [13] 94 % of control | [14] 87 % of control

CC(=O)OC1c2ccccc2C(=O)C1(OC(C)=O)c1ccccc1 (stereo not drawn)
inactive: [1] 101 % of control | [2] 97 % of control | [3] 107 % of control | [4] 100 % of control | [5] 101 % of control | [6] 102 % of control

O=C(Nc1ccc(S(=O)(=O)NC2CCCCC2)cc1)OC1CCCCCC1
inactive: dose: 100.0 mg/kg/injection, schedule: Q01DX001 (ip), vehicle: saline 94 % of control | [13] 94 % of control | [14] 88 % of control

CCCCCCCCCCCc1nc(N)nc(NCCc2ccccc2)n1
inactive: dose: 12.5 mg/kg/injection, schedule: Q01DX009 (ip), vehicle: Klucel (hydroxypropylcellulose) (HPC) 95 % of control | dose: 25.0 mg/kg/injection, schedule: Q01DX009 (ip), vehicle: Klucel (hydroxypropylcellulose) (HPC) 89 % of control | [7] 87 % of control | [8] 93 % of control | [9] 97 % of control

Cn1c2ccccc2c2nnc(SCCN3CCOCC3)nc21
inactive: [11] 97 % of control | [12] 93 % of control | dose: 400.0 mg/kg/injection, schedule: Q04DX002 (ip), vehicle: saline with Tween-80 101 % of control
